Test results as given in patent publication US9611256B2, “Alkyne-, azide- and triazole-containing flavonoids as modulators for multidrug resistance in cancers” (The Hong Kong Polytechnic University, priority 2012, dated 2017).

System: P-gp, MRP1 and BCRP transporters
Assay: Selectivity for ABC transporters, determined from % of reversion (Tables 1 and 2)
Format: cell-based, human
Conditions: determined from % of reversion in Table 1 (>80% strongly, 79-50% moderately selective)
Source text: Generally, the triazole dimers library can be divided into mono-selective, dual-selective and multi-selective ABC transporter modulators. Table 2 summarizes the selectivity of different active triazole dimers and some monomeric azides for the ABC transporters. […] From the study, it seems that the simple monomeric azides could be a highly BCRP-selective inhibitor. […] It is possible that differently selective (mono-, dual- and multi-) inhibitors of drug transporters could be potentially useful tools for investigation of complicated drug-resistance phenotypes and eventually, for treatment of drug-resistant cancers caused by overexpression of ABC transporters.
The selectivity of active triazole compounds for various ABC transporters was determined from the Table 1. It would be considered as strongly selective if it causes >80% of reversion. It would be considered as moderately selective if it results in 79-50% of reversion. Overall, the active triazole compounds can be divided into mono-, dual- and multi-selective for P-gp, MRP1 and BCRP transporters.
In the case of `O=c1cc(-c2ccccc2)oc2cc(OCCCCc3cn(CCOCCOCCOc4ccc(-c5oc6ccccc6c(=O)c5OCc5ccccc5)cc4)nn3)ccc12` [Ac12Az5, 3-(Benzyloxy)-2-(4-(2-(2-(2-(4-(4-((4-oxo-2-phenyl-4H-chromen-7-yl)oxy)butyl)-1H-1,2,3-triazol-1-yl)ethoxy)ethoxy)ethoxy)phenyl)-4H-chromen-4-one], the “Selectivity for ABC transporters (P-gp, MRP1, BCRP)” value (“Selectivity … (P-gp, MRP1, BCRP)” below) is reported as “multi-selectivity towards P-gp, MRP1 and BCRP transporters”.
For `O=c1cc(-c2ccccc2)oc2cc(OCCOCCOCCn3cc(CN(Cc4ccccc4)Cc4cn(CCOCCOCCOc5ccc6c(=O)cc(-c7ccccc7)oc6c5)nn4)nn3)ccc12` [Ac15Az12, 7,7′-(((((((4,4′-((Benzylazanediyl)bis(methylene))bis(1H-1,2,3-triazole-4,1-diyl))bis(ethane-2,1-diyl))bis(oxy))bis(ethane-2,1-diyl))bis(oxy))bis(ethane-2,1-diyl))bis(oxy))bis(2-phenyl-4H-chromen-4-one)], the “Selectivity … (P-gp, MRP1, BCRP)” value was “mono-BCRP selectivity”.
With `O=c1cc(-c2ccccc2)oc2cc(OCCOCCn3cc(COCCOc4ccc5c(=O)cc(-c6ccccc6)oc5c4)nn3)ccc12` [Ac13Az11, 7-(2-((1-(2-(2-((4-Oxo-2-phenyl-4H-chromen-7-yl)oxy)ethoxy)ethyl)-1H-1,2,3-triazol-4-yl)methoxy)ethoxy)-2-phenyl-4H-chromen-4-one] the “Selectivity … (P-gp, MRP1, BCRP)” value was “mono-BCRP selectivity”.
In the case of `[N-]=[N+]=NCCOCCOCCOc1ccc(-c2cc(=O)c3cc(Cl)cc(Cl)c3o2)cc1` [Az6, 2-(4-(2-(2-(2-Azidoethoxy)ethoxy)ethoxy)phenyl)-6,8-dichloro-4H-chromen-4-one], the “Selectivity … (P-gp, MRP1, BCRP)” value is reported as “mono-BCRP selectivity”.
In the case of `Cc1ccc2oc(-c3ccc(OCCCCc4cn(CCOCCOCCOc5ccc(-c6cc(=O)c7cc(C)ccc7o6)cc5)nn4)cc3)cc(=O)c2c1` [Ac5Az3, 6-Methyl-2-(4-(2-(2-(2-(4-(4-(4-(6-methyl-4-oxo-4H-chromen-2-yl)phenoxy)butyl)-1H-1,2,3-triazol-1-yl)ethoxy)ethoxy)ethoxy)phenyl)-4H-chromen-4-one], the “Selectivity … (P-gp, MRP1, BCRP)” value is reported as “P-gp and MRP1-dual-selectivity”.
With `[N-]=[N+]=NCCOCCOCCOc1ccc(-c2oc3ccccc3c(=O)c2OCc2ccccc2)cc1` [Az5, 2-(4-(2-(2-(2-Azidoethoxy)ethoxy)ethoxy)phenyl)-3-(benzyloxy)-4H-chromen-4-one] the “Selectivity … (P-gp, MRP1, BCRP)” value was “mono-BCRP selectivity”.
With `Cc1ccc2oc(-c3ccc(OCCCCc4cn(CCN(CCOc5ccc6c(=O)cc(-c7ccccc7)oc6c5)Cc5ccccc5)nn4)cc3)cc(=O)c2c1` [Ac5Az15, 2-(4-(4-(1-(2-(Benzyl(2-((4-oxo-2-phenyl-4H-chromen-7-yl)oxy)ethyl)amino)ethyl)-1H-1,2,3-triazol-4-yl)butoxy)phenyl)-6-methyl-4H-chromen-4-one] the “Selectivity … (P-gp, MRP1, BCRP)” value was “P-gp and MRP1-dual-selectivity”.
With `O=c1cc(-c2ccccc2)oc2cc(OCCOCCOCCn3cc(COCCOc4ccc5c(=O)cc(-c6ccccc6)oc5c4)nn3)ccc12` [Ac13Az12, 7-(2-((1-(2-(2-(2-((4-Oxo-2-phenyl-4H-chromen-7-yl)oxy)ethoxy)ethoxy)ethyl)-1H-1,2,3-triazol-4-yl)methoxy)ethoxy)-2-phenyl-4H-chromen-4-one] the “Selectivity … (P-gp, MRP1, BCRP)” value was “mono-BCRP selectivity”.

System: not listed separately
Assay: in vitro
Conditions: mouse
In the case of `O=c1cc(-c2ccc(OCCOCCOCCn3cc(CN(CCOc4ccc5c(=O)cc(-c6ccccc6)oc5c4)Cc4ccccc4)nn3)cc2)oc2ccccc12` [Ac16Az2, 7-(2-(Benzyl((1-(2-(2-(2-(4-(4-oxo-4H-chromen-2-yl)phenoxy)ethoxy)ethoxy)ethyl)-1H-1,2,3-triazol-4-yl)methyl)amino)ethoxy)-2-phenyl-4H-chromen-4-one], the IC50 at 5 days is reported as greater than 100 µM.
In the case of `C#CCOCCOc1ccc2c(=O)cc(-c3ccccc3)oc2c1` [Ac13, 2-Phenyl-7-(2-(prop-2-yn-1-yloxy)ethoxy)-4H-chromen-4-one], the IC50 at 5 days is reported as 32.2 µM.
In the case of `C#CCN(CCOc1ccc2c(=O)cc(-c3ccccc3)oc2c1)Cc1ccccc1` [Ac16, 7-(2-(Benzyl(prop-2-yn-1-yl)amino)ethoxy)-2-phenyl-4H-chromen-4-one], the IC50 at 5 days is reported as 58.2 µM.
`O=c1cc(-c2ccc(OCCOCCOCCn3cc(COCCOc4ccc5c(=O)cc(-c6ccccc6)oc5c4)nn3)cc2)oc2ccccc12` [Ac13Az2, 7-(2-((1-(2-(2-(2-(4-(4-Oxo-4H-chromen-2-yl)phenoxy)ethoxy)ethoxy)ethyl)-1H-1,2,3-triazol-4-yl)methoxy)ethoxy)-2-phenyl-4H-chromen-4-one] showed an IC50 at 5 days of less than 12.1 µM.
Work on `O=c1[nH]c(-c2ccc(OCCCc3cn(CCOCCOCCOc4ccc(-c5cc(=O)c6ccccc6o5)cc4)nn3)cc2)nc2ccccc12` [Ac11Az2, 2-(4-(3-(1-(2-(2-(2-(4-(4-oxo-4H-chromen-2-yl)phenoxy)ethoxy)ethoxy)ethyl)-1H-1,2,3-triazol-4-yl)propoxy)phenyl)quinazolin-4(3H)-one] yielded an IC50 at 5 days of less than 12.1 µM.
`Cc1ccc2oc(-c3ccc(OCCCCc4cn(CCOCCOc5ccc(-c6oc7ccccc7c(=O)c6O)cc5)nn4)cc3)cc(=O)c2c1` [Ac5Az100H, 3-Hydroxy-2-(4-(2-(2-(4-(4-(4-(6-methyl-4-oxo-4H-chromen-2-yl)phenoxy)butyl)-1H-1,2,3-triazol-1-yl)ethoxy)ethoxy)phenyl)-4H-chromen-4-one] showed an IC50 at 5 days of less than 12.1 µM.
With `Cc1ccc2oc(-c3ccc(OCCCCc4cn(CCOCCOCCOc5ccc(-c6oc7ccccc7c(=O)c6O)cc5)nn4)cc3)cc(=O)c2c1` [Ac5Az5OH, 3-Hydroxy-2-(4-(2-(2-(2-(4-(4-(4-(6-methyl-4-oxo-4H-chromen-2-yl)phenoxy)butyl)-1H-1,2,3-triazol-1-yl)ethoxy)ethoxy)ethoxy)phenyl)-4H-chromen-4-one] the IC50 at 5 days was less than 12.1 µM.
Compound `COCOc1cc(OCc2ccccc2)c2c(=O)cc(-c3ccc(OCCCc4cn(CCOCCOc5ccc(-c6cc(=O)c7ccccc7o6)cc5)nn4)cc3)oc2c1` [Ac4Az1, 5-(Benzyloxy)-7-(methoxymethoxy)-2-(4-(3-(1-(2-(2-(4-(4-oxo-4H-chromen-2-yl)phenoxy)ethoxy)ethyl)-1H-1,2,3-triazol-4-yl)propoxy)phenyl)-4H-chromen-4-one] has an IC50 at 5 days of less than 12.1 µM.
Compound `O=c1cc(-c2ccccc2)oc2cc(OCCOCCOCCn3cc(COCCOc4ccc5c(=O)cc(-c6ccccc6)oc5c4)nn3)ccc12` [Ac13Az12, 7-(2-((1-(2-(2-(2-((4-Oxo-2-phenyl-4H-chromen-7-yl)oxy)ethoxy)ethoxy)ethyl)-1H-1,2,3-triazol-4-yl)methoxy)ethoxy)-2-phenyl-4H-chromen-4-one] has an IC50 at 5 days of less than 12.1 µM.
